Literature values as cited in patent US20090221604A1, “Thiazole Compounds and Their Use as PGD2 Antagonists” (priority 2005, published 2009).

Columns and labels:
guinea pig = conditions: after oral dosing
[1] = system: allergic conjunctivitis model
[2] = system: asthma model in the guinea pig

## CC1(C)[C@H]2C[C@H](C/C=C\CCCC(=O)O)[C@@H](NC(=O)c3csc4ccc(O)cc34)[C@@H]1C2 [Example S-5751]
Guinea pig
  early (sneezing, mucosal plasma exudation, nasal blockage) and late (eosinophil infiltration) phase nasal responses: inhibited
[1]
  allergen-induced plasma exudation in the conjunctiva: alleviated
[2]
  antigen-induced eosinophil infiltration into the lung: alleviated
